Laboratory results from ChEMBL document CHEMBL2146430, “Rational evolution of a novel type of potent and selective proviral integration site in Moloney murine leukemia virus kinase 1 (PIM1) inhibitor from a screening-hit compound” (J Med Chem, 2012).
Calls of active or inactive are those of the source. No cut-off for these calls is given here.

Experiments:
[1] = biological target: T1, Serine/threonine-protein kinase pim-2 (Homo sapiens, UniProt Q9P1W9); test: Inhibition of PIM2 at 300 nM by electrophoretic mobility shift assay
Target sequence in this assay (Q9P1W9 whole entry, looked up): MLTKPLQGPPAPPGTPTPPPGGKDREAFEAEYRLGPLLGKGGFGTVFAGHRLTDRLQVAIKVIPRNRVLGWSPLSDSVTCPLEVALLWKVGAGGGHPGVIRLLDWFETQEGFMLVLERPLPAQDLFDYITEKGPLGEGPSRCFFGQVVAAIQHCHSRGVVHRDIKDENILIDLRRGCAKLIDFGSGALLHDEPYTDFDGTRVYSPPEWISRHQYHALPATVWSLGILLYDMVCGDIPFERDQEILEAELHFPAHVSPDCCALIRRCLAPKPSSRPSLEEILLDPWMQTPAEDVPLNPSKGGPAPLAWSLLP

[2] = biological target: T2, Serine/threonine-protein kinase pim-3 (Homo sapiens, UniProt Q86V86); test: Inhibition of PIM3 by electrophoretic mobility shift assay
[3] = biological target: CYP3A4 (Homo sapiens, UniProt P08684); test: Inhibition of CYP3A4 at 10 uM; assay type: ADME
[4] = biological target: Receptor-type tyrosine-protein kinase FLT3 (Homo sapiens) (UniProt P36888); test: Inhibition of FLT3 at 300 nM by electrophoretic mobility shift assay
[5] = tested on: MV4-11; test: Induction of apoptosis in human MV4-11 cells after 48 hrs by annexin V/propidium iodide staining based flow cytometric analysis; assay type: functional, cell-based
[6] = biological target: T3, Serine/threonine-protein kinase pim-1 (Homo sapiens, UniProt P11309); test: Inhibition of PIM1 using 5-FAM-RSRHSSYPAGT-CONH2 as substrate after 2 hrs by electrophoretic mobility shift assay
Target sequence in this assay (P11309 whole entry): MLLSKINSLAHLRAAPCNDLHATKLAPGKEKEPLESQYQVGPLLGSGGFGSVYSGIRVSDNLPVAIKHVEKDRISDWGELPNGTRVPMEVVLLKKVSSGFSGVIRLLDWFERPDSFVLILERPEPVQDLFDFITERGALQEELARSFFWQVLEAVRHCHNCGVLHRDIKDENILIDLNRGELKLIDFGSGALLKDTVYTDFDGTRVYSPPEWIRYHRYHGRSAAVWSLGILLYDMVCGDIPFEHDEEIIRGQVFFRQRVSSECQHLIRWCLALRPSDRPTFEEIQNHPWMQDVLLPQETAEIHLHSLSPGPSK

[7] = biological target: T4, hERG (KCNH2) (Homo sapiens, UniProt Q12809); test: Inhibition of human ERG at 1 uM by patch clamp assay
[8] = tested on: MV4-11; test: Cell cycle arrest in human MV4-11 cells assessed as accumulation at G1 phase after 48 hrs by flow cytometry; assay type: functional, cell-based
[9] = Metabolic stability in mouse liver microsomes assessed as compound remaining at 1 uM after 1 hr; assay type: ADME, Microsome; settings: read-out: Stability
[10] = biological target: CYP2C9 (Homo sapiens, UniProt P11712); test: Inhibition of CYP2C9 at 10 uM; assay type: ADME
[11] = biological target: CYP1A2 (Homo sapiens, UniProt P05177); test: Inhibition of CYP1A2 at 10 uM; assay type: ADME
[12] = tested on: MV4-11; test: Growth inhibition of human MV4-11 cells after 48 hrs; assay type: functional; settings: MV4-11, 48 h
[13] = tested on: WI-38; test: Growth inhibition of human WI38 cells after 48 hrs; assay type: cell-based; settings: wi-38, 48 h
[14] = biological target: T3, Serine/threonine-protein kinase pim-1; test: Inhibition of PIM1 by electrophoretic mobility shift assay
Target sequence in this assay (P11309 whole entry): as above

[15] = biological target: T1, Serine/threonine-protein kinase pim-2; test: Inhibition of PIM2 by electrophoretic mobility shift assay
[16] = biological target: CYP2D6 (Homo sapiens, UniProt P10635); test: Inhibition of CYP2D6 at 10 uM; assay type: ADME
[17] = biological target: T3, Serine/threonine-protein kinase pim-1; settings: MV4-11, 0.01 to 10 uM
Target sequence in this assay (P11309 whole entry, looked up): as the sequence (P11309 whole entry) above
Description: Inhibition of PIM1-mediated BAD phosphorylation at ser136 in human MV4-11 cells at 0.01 to 10 uM after 1 hr by Western blotting

[18] = biological target: CYP2C19 (Homo sapiens, UniProt P33261); test: Inhibition of CYP2C19 at 10 uM; assay type: ADME
[19] = Metabolic stability in human liver microsomes assessed as compound remaining at 1 uM after 1 hr; assay type: ADME, Microsome; settings: read-out: Stability
[20] = biological target: T2, Serine/threonine-protein kinase pim-3; test: Inhibition of PIM3 at 300 nM by electrophoretic mobility shift assay
[21] = biological target: T4, hERG (KCNH2); test: Inhibition of human ERG at 10 uM by patch clamp assay
[22] = biological target: T3, Serine/threonine-protein kinase pim-1; settings: 300 nM
Target sequence in this assay (P11309 whole entry, looked up): as the sequence (P11309 whole entry) above
Description: Inhibition of PIM1 at 300 nM by electrophoretic mobility shift assay

[23] = Metabolic stability in mouse hepatocytes assessed as compound remaining at 1 uM after 2 hrs; assay type: ADME, cell-based, Hepatocyte; settings: read-out: Stability
[24] = biological target: Receptor-type tyrosine-protein kinase FLT3 (Homo sapiens, UniProt P36888); test: Inhibition of FLT3 by electrophoretic mobility shift assay
[25] = biological target: Tyrosine-protein kinase SYK (Homo sapiens) (UniProt P43405); test: Inhibition of SYK at 600 nM by electrophoretic mobility shift assay
[26] = biological target: T2, Serine/threonine-protein kinase pim-3; test: Inhibition of PIM3 at 600 nM by electrophoretic mobility shift assay
[27] = biological target: T3, Serine/threonine-protein kinase pim-1; test: Inhibition of PIM1 at 600 nM by electrophoretic mobility shift assay
Target sequence in this assay (P11309 whole entry, looked up): as the sequence (P11309 whole entry) above

[28] = biological target: Receptor-type tyrosine-protein kinase FLT3 (Homo sapiens) (UniProt P36888); test: Inhibition of FLT3 at 600 nM by electrophoretic mobility shift assay
[29] = biological target: Platelet-derived growth factor receptor alpha (Homo sapiens) (UniProt P16234); test: Inhibition of PDGFRalpha at 600 nM by electrophoretic mobility shift assay
[30] = biological target: T1, Serine/threonine-protein kinase pim-2; test: Inhibition of PIM2 at 600 nM by electrophoretic mobility shift assay
Target sequence in this assay (Q9P1W9 whole entry, looked up): as the sequence (Q9P1W9 whole entry, looked up) above

[31] = biological target: Mitogen-activated protein kinase kinase kinase 9 (Homo sapiens) (UniProt P80192); test: Inhibition of MLK1 at 22500 nM by ELISA
[32] = biological target: T1, Serine/threonine-protein kinase pim-2; test: Inhibition of PIM2 at 22500 nM by electrophoretic mobility shift assay
Target sequence in this assay (Q9P1W9 whole entry, looked up): as above

[33] = biological target: Aurora kinase A (Homo sapiens) (UniProt O14965); test: Inhibition of Aurora A at 22500 nM by electrophoretic mobility shift assay
[34] = biological target: Glycogen synthase kinase-3 beta (Homo sapiens) (UniProt P49841); test: Inhibition of GSK3beta at 22500 nM by electrophoretic mobility shift assay
[35] = biological target: Vascular endothelial growth factor receptor 2 (Homo sapiens) (UniProt P35968); test: Inhibition of KDR at 22500 nM by electrophoretic mobility shift assay
[36] = biological target: T2, Serine/threonine-protein kinase pim-3; test: Inhibition of PIM3 at 22500 nM by electrophoretic mobility shift assay
[37] = biological target: Receptor-type tyrosine-protein kinase FLT3 (Homo sapiens) (UniProt P36888); test: Inhibition of FLT3 at 22500 nM by electrophoretic mobility shift assay
[38] = biological target: Epidermal growth factor receptor (Homo sapiens) (UniProt P00533); test: Inhibition of EGFR at 22500 nM by electrophoretic mobility shift assay
[39] = biological target: Platelet-derived growth factor receptor alpha (Homo sapiens) (UniProt P16234); test: Inhibition of PDGFRalpha at 22500 nM by electrophoretic mobility shift assay
[40] = biological target: Serine/threonine-protein kinase 4 (Homo sapiens) (UniProt Q13043); test: Inhibition of MST1 at 22500 nM by electrophoretic mobility shift assay
[41] = biological target: Tyrosine-protein kinase SYK (Homo sapiens) (UniProt P43405); test: Inhibition of SYK at 22500 nM by electrophoretic mobility shift assay
[42] = biological target: T3, Serine/threonine-protein kinase pim-1; test: Inhibition of PIM1 at 22500 nM by electrophoretic mobility shift assay
Target sequence in this assay (P11309 whole entry, looked up): as the sequence (P11309 whole entry) above

[43] = biological target: T2, Serine/threonine-protein kinase pim-3; settings: 250 nM
Description: Inhibition of PIM3 at 250 nM by electrophoretic mobility shift assay

[44] = biological target: T1, Serine/threonine-protein kinase pim-2; settings: 250 nM
Target sequence in this assay (Q9P1W9 whole entry, looked up): as the sequence (Q9P1W9 whole entry, looked up) above
Description: Inhibition of PIM2 at 250 nM by electrophoretic mobility shift assay

[45] = biological target: Glycogen synthase kinase-3 beta (Homo sapiens) (UniProt P49841); test: Inhibition of GSK3beta at 200 nM by electrophoretic mobility shift assay
[46] = biological target: Protein kinase C alpha type (Homo sapiens) (UniProt P17252); test: Inhibition of PKCalpha at 200 nM by electrophoretic mobility shift assay
[47] = biological target: T2, Serine/threonine-protein kinase pim-3; test: Inhibition of PIM3 at 200 nM by electrophoretic mobility shift assay
[48] = biological target: T1, Serine/threonine-protein kinase pim-2; test: Inhibition of PIM2 at 200 nM by electrophoretic mobility shift assay
Target sequence in this assay (Q9P1W9 whole entry, looked up): as the sequence (Q9P1W9 whole entry, looked up) above

[49] = biological target: Platelet-derived growth factor receptor alpha (Homo sapiens) (UniProt P16234); test: Inhibition of PDGFRalpha at 200 nM by electrophoretic mobility shift assay
[50] = biological target: T3, Serine/threonine-protein kinase pim-1; test: Inhibition of PIM1 at 200 nM by electrophoretic mobility shift assay
Target sequence in this assay (P11309 whole entry, looked up): as the sequence (P11309 whole entry) above

[51] = biological target: Rho-associated protein kinase 1 (Homo sapiens) (UniProt Q13464); test: Inhibition of ROCK1 at 200 nM by electrophoretic mobility shift assay
[52] = biological target: Death-associated protein kinase 1 (Homo sapiens) (UniProt P53355); test: Inhibition of DAPK1 at 200 nM by electrophoretic mobility shift assay
[53] = biological target: Serine/threonine-protein kinase D2 (Homo sapiens) (UniProt Q9BZL6); test: Inhibition of PKD2 at 200 nM by electrophoretic mobility shift assay
[54] = biological target: Receptor-type tyrosine-protein kinase FLT3 (Homo sapiens) (UniProt P36888); test: Inhibition of FLT3 at 200 nM by electrophoretic mobility shift assay

Receptor-type tyrosine-protein kinase FLT3 (Homo sapiens), sequence (P36888 whole entry): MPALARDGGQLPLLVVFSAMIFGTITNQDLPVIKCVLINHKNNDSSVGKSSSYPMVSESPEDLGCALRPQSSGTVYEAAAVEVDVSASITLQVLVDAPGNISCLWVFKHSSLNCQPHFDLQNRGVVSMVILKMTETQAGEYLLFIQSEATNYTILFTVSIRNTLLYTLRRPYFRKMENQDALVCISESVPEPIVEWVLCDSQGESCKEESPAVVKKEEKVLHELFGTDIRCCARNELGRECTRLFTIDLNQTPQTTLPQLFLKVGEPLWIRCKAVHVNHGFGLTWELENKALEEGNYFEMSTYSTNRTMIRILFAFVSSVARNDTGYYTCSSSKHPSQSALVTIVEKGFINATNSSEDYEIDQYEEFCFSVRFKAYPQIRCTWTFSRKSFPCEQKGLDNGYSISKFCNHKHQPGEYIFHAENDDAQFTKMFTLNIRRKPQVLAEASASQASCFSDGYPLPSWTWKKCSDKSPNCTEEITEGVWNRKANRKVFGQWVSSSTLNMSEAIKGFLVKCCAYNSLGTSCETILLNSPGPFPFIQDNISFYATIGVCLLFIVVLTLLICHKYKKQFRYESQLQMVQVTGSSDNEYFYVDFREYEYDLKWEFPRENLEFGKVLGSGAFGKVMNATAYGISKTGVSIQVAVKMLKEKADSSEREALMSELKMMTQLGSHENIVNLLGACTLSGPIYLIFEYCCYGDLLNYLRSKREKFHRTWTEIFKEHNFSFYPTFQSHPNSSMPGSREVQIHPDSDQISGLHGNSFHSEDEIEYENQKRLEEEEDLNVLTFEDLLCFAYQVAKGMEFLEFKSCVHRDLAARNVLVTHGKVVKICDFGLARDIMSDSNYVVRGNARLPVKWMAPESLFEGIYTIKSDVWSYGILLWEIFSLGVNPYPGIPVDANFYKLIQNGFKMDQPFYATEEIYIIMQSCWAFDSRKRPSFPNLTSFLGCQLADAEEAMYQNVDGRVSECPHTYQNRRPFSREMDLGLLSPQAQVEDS
Platelet-derived growth factor receptor alpha (Homo sapiens), sequence (P16234 whole entry): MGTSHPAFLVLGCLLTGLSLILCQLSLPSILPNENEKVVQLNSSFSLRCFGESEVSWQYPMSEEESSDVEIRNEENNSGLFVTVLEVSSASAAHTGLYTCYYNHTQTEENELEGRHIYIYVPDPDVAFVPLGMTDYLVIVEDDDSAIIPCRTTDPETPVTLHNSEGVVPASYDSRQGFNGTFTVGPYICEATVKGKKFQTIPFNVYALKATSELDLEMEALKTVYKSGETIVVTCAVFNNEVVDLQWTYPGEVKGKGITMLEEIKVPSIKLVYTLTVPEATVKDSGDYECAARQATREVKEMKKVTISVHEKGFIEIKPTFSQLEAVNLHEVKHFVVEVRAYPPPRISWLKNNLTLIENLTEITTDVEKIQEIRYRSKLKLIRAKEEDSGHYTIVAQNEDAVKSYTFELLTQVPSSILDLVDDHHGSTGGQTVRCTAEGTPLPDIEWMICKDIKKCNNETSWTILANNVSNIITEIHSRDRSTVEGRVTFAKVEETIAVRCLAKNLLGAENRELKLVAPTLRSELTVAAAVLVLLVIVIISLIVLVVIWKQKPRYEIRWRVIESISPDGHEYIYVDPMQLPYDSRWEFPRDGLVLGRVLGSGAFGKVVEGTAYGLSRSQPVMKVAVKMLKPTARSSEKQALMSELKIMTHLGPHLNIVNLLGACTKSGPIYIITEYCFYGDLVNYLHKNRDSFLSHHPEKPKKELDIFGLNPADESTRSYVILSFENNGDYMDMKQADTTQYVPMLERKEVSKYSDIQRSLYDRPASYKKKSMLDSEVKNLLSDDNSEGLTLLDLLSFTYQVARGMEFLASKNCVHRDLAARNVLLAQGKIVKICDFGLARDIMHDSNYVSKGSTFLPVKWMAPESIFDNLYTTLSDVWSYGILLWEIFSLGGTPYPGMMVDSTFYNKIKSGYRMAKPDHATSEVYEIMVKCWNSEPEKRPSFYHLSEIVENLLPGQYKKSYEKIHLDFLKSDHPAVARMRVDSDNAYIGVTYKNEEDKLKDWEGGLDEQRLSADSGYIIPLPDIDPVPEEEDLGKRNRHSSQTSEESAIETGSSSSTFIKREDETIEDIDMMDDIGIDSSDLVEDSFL
Glycogen synthase kinase-3 beta (Homo sapiens), sequence (P49841 whole entry, looked up): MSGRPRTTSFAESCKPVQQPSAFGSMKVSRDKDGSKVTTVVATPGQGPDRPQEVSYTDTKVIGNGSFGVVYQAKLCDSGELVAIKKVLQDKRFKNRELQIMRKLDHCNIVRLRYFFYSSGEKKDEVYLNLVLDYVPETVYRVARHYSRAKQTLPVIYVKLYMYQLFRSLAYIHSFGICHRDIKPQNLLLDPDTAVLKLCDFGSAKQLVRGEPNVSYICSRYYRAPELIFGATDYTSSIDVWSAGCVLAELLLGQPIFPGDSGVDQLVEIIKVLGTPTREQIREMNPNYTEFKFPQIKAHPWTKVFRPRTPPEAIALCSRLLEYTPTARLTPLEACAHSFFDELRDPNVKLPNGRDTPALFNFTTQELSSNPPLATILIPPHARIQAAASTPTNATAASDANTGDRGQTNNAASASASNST

SMILES: COc1ccc2c(c1CN1CCNCC1)O/C(=C\c1n[nH]c3ccccc13)C2=O
- inhibition [1]: 19%
- IC50 [2]: 13 nM
- inhibition at 10 µM [3]: 10%
- inhibition [4]: Active
- Activity [5]: Dose-dependent effect
- IC50 [6]: 3 nM
- inhibition at 1 µM [7]: 13%
- Activity [8]: Dose-dependent effect
- remaining at 1 h, 1 µM [9]: 92%
- inhibition at 10 µM [10]: < 1%
- inhibition at 10 µM [11]: 33%
- GI50 [12]: 43 nM
- Activity [13]: Non-toxic
- IC50 [14]: 6 nM
- IC50 [15]: 1160 nM
- inhibition at 10 µM [16]: 11%
- inhibition [17]: inactive
- inhibition at 10 µM [18]: 54%
- remaining at 1 h, 1 µM [19]: > 99%
- inhibition [20]: 98%
- inhibition at 10 µM [21]: 60%
- inhibition [22]: 99%
- remaining at 2 h, 1 µM [23]: 89%
- IC50 [24]: 47 nM

SMILES: O=C1/C(=C/c2c[nH]c3ccccc23)Oc2c1ccc(O)c2CN1CCNCC1
- inhibition [25]: Active
- inhibition [26]: 97%
- IC50 [6]: 17 nM
- remaining at 1 h, 1 µM [9]: 71%
- inhibition [27]: 98%
- GI50 [12]: 270 nM
- inhibition [28]: Active
- remaining at 1 h, 1 µM [19]: 90%
- inhibition [29]: Active
- inhibition [30]: 30%

SMILES: O=C1/C(=C/c2c[nH]c3ccccc23)Oc2c1ccc(O)c2CN1CCCNCC1
- IC50 [6]: 102 nM

SMILES: O=C1/C(=C/c2c[nH]c3ccccc23)Oc2c1ccc(O)c2CN1CCCCCC1
- inhibition [31]: Active
- inhibition [32]: 46%
- inhibition [33]: Active
- inhibition [34]: Active
- inhibition [35]: Active
- inhibition [36]: 88%
- inhibition [37]: Active
- IC50 [6]: 410 nM
- remaining at 1 h, 1 µM [9]: 44%
- inhibition [38]: Active
- inhibition [39]: Active
- inhibition [40]: Active
- inhibition [41]: Active
- remaining at 1 h, 1 µM [19]: 36%
- inhibition [42]: 77%

SMILES: O=C1/C(=C/c2c[nH]c3ccccc23)Oc2c1ccc(OCc1ccccc1)c2CN1CCNCC1
- IC50 [6]: 43 nM

SMILES: COc1ccc2c(c1CN1CCNCC1)O/C(=C\c1c[nH]c3ccccc13)C2=O
- inhibition [43]: 98%
- inhibition [44]: 30%
- remaining at 1 h, 1 µM [9]: 86%
- GI50 [12]: 95 nM
- remaining at 1 h, 1 µM [19]: 82%

SMILES: CN1CCN(Cc2c(O)ccc3c2O/C(=C\c2c[nH]c4ccccc24)C3=O)CC1
- IC50 [6]: 388 nM

SMILES: COc1ccc2c(c1CN1CCNCC1)O/C(=C\c1c[nH]c3ccncc13)C2=O
- IC50 [6]: 53 nM

SMILES: O=C1/C(=C/c2c[nH]c3ccccc23)Oc2c(CN3CCNCC3)cccc21
- IC50 [6]: 20 nM

SMILES: COc1ccc2c(c1CN1CCNCC1)O/C(=C\c1c[nH]c3cccnc13)C2=O
- IC50 [6]: 447 nM

SMILES: CCOc1ccc2c(c1CN1CCNCC1)O/C(=C\c1c[nH]c3ccccc13)C2=O
- IC50 [6]: 6 nM

SMILES: CCCOc1ccc2c(c1CN1CCNCC1)O/C(=C\c1c[nH]c3ccccc13)C2=O
- IC50 [6]: 12 nM

SMILES: COc1ccc2c(c1CN1CCNCC1)O/C(=C\c1c[nH]c3ncccc13)C2=O
- inhibition [45]: Active
- inhibition [46]: Active
- inhibition [47]: 99%
- IC50 [6]: 2 nM
- inhibition [48]: 39%
- inhibition [49]: Active
- inhibition [50]: > 99%
- inhibition [51]: Active
- inhibition [52]: Active
- inhibition [53]: Active
- inhibition [54]: Active
